Assay results: patent US20250269072A1, “PROCESSES FOR PREPARING RADIOLABELLED CONJUGATES” (CENTENARY INSTITUTE OF CANCER MEDICINE AND CELL BIOLOGY, priority 2021, published 2025)
Several values for one entry are separate records, joined by “and”; a condition that tells them apart may be missing. Equal entries are not always repeated.

Legend:
[1] = system: squamous cell carcinoma lymph node metastases; experiment: Histological correlation (TUNEL) with ^68Ga-CDI uptake; type: in vivo, human; details: subject 3, right axillary and right cervical nodal metastases
Excerpt: In one subject, who proceeded to surgical excision of the tumor deposits 1 day after the ^68Ga-CDI PET scan, histological correlation of the tumor deposits were undertaken using haematoxylin and eosin staining and TUNEL staining to specifically identify dead and dying cells. Representative samples of the formalin fixed surgical specimens (following completion of all clinical analysis and excess to that required for archival purposes) from the right axillary and right cervical nodal masses were selected and provided by the reporting clinical pathologist. The tissues were fixed, rehydrated with ethanol and xylene and embedded in paraffin. A series of 4 μm thick sections were cut and stained with Haematoxylin and Eosin. Apoptotic cells were stained using the TUNEL assay kit HRP-DAB (Abcam, Cat #206386, Cambridge, MA, USA) according to manufacturer's protocol. Briefly, 4 μm sections of paraffin embedded tumor were deparaffinized in xylene and rehydrated in decreasing concentrations of ethanol. Tumor sections were permeabilized with Proteinase K for 20 min at room temperature. The endogenous peroxidase activity was quenched with 3% H2O2 for 5 min. Apoptotic cells were labelled with biotinylated Terminal deoxynucleotidyl Transferase (TdT) at 37° C. in humidified chamber for 2 h followed by a 30 min incubation with streptavidin-HRP conjugate. […]

[2] = Human radiation dosimetry estimated from rat biodistribution (OLINDA/EXM); type: in vivo, human (standard adult male); details: from rat data
Protocol: For the voiding bladder model it was assumed that patients would void 1 hour following administration.

Structure (SMILES): O=C(O)CNC(=O)[C@H](CSCC(=O)Nc1ccc([As](O)O)cc1)NC(=O)CC[C@H](NC(=O)CCC1C(=O)[O][68Ga]2[O]C(=O)CN3CCN(CCN1CC3)CC(=O)[O]2)C(=O)O (stereo partly shown) [^68Ga-NODAGA-GSAO]
- TUNEL positive cells versus intensity of uptake [1]: correlated
- Alpha dose ([2]; Adrenals): 0.00E000 mSv/MBq
- Beta dose ([2]; Adrenals): 2.13E−03 mSv/MBq
- ED Cont. ([2]; Adrenals): 2.01E−05 mSv/MBq
- Total dose ([2]; Adrenals): 4.02E−03 mSv/MBq
- Alpha dose ([2]; Brain): 0.00E000 mSv/MBq
- Beta dose ([2]; Brain): 8.15E−04 mSv/MBq
- ED Cont. ([2]; Brain): 6.94E−06 mSv/MBq
- Total dose ([2]; Brain): 1.39E−03 mSv/MBq
- Alpha dose ([2]; Breasts): 0.00E000 mSv/MBq
- Beta dose ([2]; Breasts): 2.13E−03 mSv/MBq
- ED Cont. ([2]; Breasts): 1.51E−04 mSv/MBq
- Total dose ([2]; Breasts): 3.02E−03 mSv/MBq
- Alpha dose ([2]; Gallbladder Wall): 0.00E000 mSv/MBq
- Beta dose ([2]; Gallbladder Wall): 2.13E−03 mSv/MBq
- ED Cont. ([2]; Gallbladder Wall): 0.00E000 mSv/MBq
- Total dose ([2]; Gallbladder Wall): 4.28E−03 mSv/MBq
- Alpha dose ([2]; Heart Wall): 0.00E000 mSv/MBq
- Beta dose ([2]; Heart Wall): 3.09E−03 mSv/MBq
- ED Cont. ([2]; Heart Wall): 0.00E000 mSv/MBq
- Photon dose ([2]; Heart Wall): 1.55E−03 mSv/MBq
- Total dose ([2]; Heart Wall): 4.65E−03 mSv/MBq
- Alpha dose ([2]; Kidneys): 0.00E000 mSv/MBq
- Beta dose ([2]; Kidneys): 2.27E−02 mSv/MBq
- ED Cont. ([2]; Kidneys): 1.31E−04 mSv/MBq
- Photon dose ([2]; Kidneys): 3.56E−03 mSv/MBq
- Total dose ([2]; Kidneys): 2.62E−02 mSv/MBq
- Alpha dose ([2]; LLI Wall): 0.00E000 mSv/MBq
- Beta dose ([2]; LLI Wall): 2.13E−03 mSv/MBq
- ED Cont. ([2]; LLI Wall): 8.67E−04 mSv/MBq
- Total dose ([2]; LLI Wall): 7.23E−03 mSv/MBq
- Alpha dose ([2]; Liver): 0.00E000 mSv/MBq
- Beta dose ([2]; Liver): 4.76E−03 mSv/MBq
- ED Cont. ([2]; Liver): 3.40E−04 mSv/MBq
- Photon dose ([2]; Liver): 2.04E−03 mSv/MBq
- Total dose ([2]; Liver): 6.80E−03 mSv/MBq
- Alpha dose ([2]; Lungs): 0.00E000 mSv/MBq
- Beta dose ([2]; Lungs): 5.42E−03 mSv/MBq
- ED Cont. ([2]; Lungs): 8.16E−04 mSv/MBq
- Total dose ([2]; Lungs): 6.80E−03 mSv/MBq
- Alpha dose ([2]; Muscle): 0.00E000 mSv/MBq
- ED Cont. ([2]; Muscle): 2.09E−05 mSv/MBq
- Total dose ([2]; Muscle): 4.18E−03 mSv/MBq
- Alpha dose ([2]; Osteogenic Cells): 0.00E000 mSv/MBq
- Beta dose ([2]; Osteogenic Cells): 3.31E−03 mSv/MBq
- ED Cont. ([2]; Osteogenic Cells): 4.98E−05 mSv/MBq
- Total dose ([2]; Osteogenic Cells): 4.98E−03 mSv/MBq
- Alpha dose ([2]; Ovaries): 0.00E000 mSv/MBq
- Beta dose ([2]; Ovaries): 2.13E−03 mSv/MBq
- ED Cont. ([2]; Ovaries): 1.40E−03 mSv/MBq
- Total dose ([2]; Ovaries): 7.02E−03 mSv/MBq
- Alpha dose ([2]; Pancreas): 0.00E000 mSv/MBq
- Beta dose ([2]; Pancreas): 3.87E−03 mSv/MBq
- ED Cont. ([2]; Pancreas): 2.95E−05 mSv/MBq
- Total dose ([2]; Pancreas): 5.90E−03 mSv/MBq
- Alpha dose ([2]; Red Marrow): 0.00E000 mSv/MBq
- Beta dose ([2]; Red Marrow): 1.49E−03 mSv/MBq
- ED Cont. ([2]; Red Marrow): 4.05E−04 mSv/MBq
- Total dose ([2]; Red Marrow): 3.38E−03 mSv/MBq
- Alpha dose ([2]; Skin): 0.00E000 mSv/MBq
- Beta dose ([2]; Skin): 2.13E−03 mSv/MBq
- ED Cont. ([2]; Skin): 3.19E−05 mSv/MBq
- Total dose ([2]; Skin): 3.19E−03 mSv/MBq
- Alpha dose ([2]; Small Intestine): 0.00E000 mSv/MBq
- Beta dose ([2]; Small Intestine): 5.18E−03 mSv/MBq
- ED Cont. ([2]; Small Intestine): 4.10E−05 mSv/MBq
- Photon dose ([2]; Small Intestine): 3.03E−03 mSv/MBq
- Total dose ([2]; Small Intestine): 8.21E−03 mSv/MBq
- Alpha dose ([2]; Spleen): 0.00E000 mSv/MBq
- Beta dose ([2]; Spleen): 4.05E−03 mSv/MBq
- ED Cont. ([2]; Spleen): 2.95E−05 mSv/MBq
- Total dose ([2]; Spleen): 5.91E−03 mSv/MBq
- Alpha dose ([2]; Stomach Wall): 0.00E000 mSv/MBq
- Beta dose ([2]; Stomach Wall): 2.61E−03 mSv/MBq
- ED Cont. ([2]; Stomach Wall): 5.06E−04 mSv/MBq
- Photon dose ([2]; Stomach Wall): 1.61E−03 mSv/MBq
- Total dose ([2]; Stomach Wall): 4.22E−03 mSv/MBq
- Alpha dose ([2]; Testes): 0.00E000 mSv/MBq
- Beta dose ([2]; Testes): 2.21E−03 mSv/MBq
- ED Cont. ([2]; Testes): 0.00E000 mSv/MBq
- Total dose ([2]; Testes): 5.69E−03 mSv/MBq
- Alpha dose ([2]; Thymus): 0.00E000 mSv/MBq
- Beta dose ([2]; Thymus): 4.48E−03 mSv/MBq
- ED Cont. ([2]; Thymus): 2.92E−05 mSv/MBq
- Total dose ([2]; Thymus): 5.84E−03 mSv/MBq
- Alpha dose ([2]; Thyroid): 0.00E000 mSv/MBq
- Beta dose ([2]; Thyroid): 2.13E−03 mSv/MBq
- ED Cont. ([2]; Thyroid): 1.64E−04 mSv/MBq
- Total dose ([2]; Thyroid): 3.28E−03 mSv/MBq
- Alpha dose ([2]; Total Body): 0.00E000 mSv/MBq
- Beta dose ([2]; Total Body): 2.68E−03 mSv/MBq
- ED Cont. ([2]; Total Body): 0.00E000 mSv/MBq
- Total dose ([2]; Total Body): 4.61E−03 mSv/MBq
- Alpha dose ([2]; ULI Wall): 0.00E000 mSv/MBq
- Beta dose ([2]; ULI Wall): 2.53E−03 mSv/MBq
- ED Cont. ([2]; ULI Wall): 2.58E−05 mSv/MBq
- Photon dose ([2]; ULI Wall): 2.63E−03 mSv/MBq
- Total dose ([2]; ULI Wall): 5.18E−03 mSv/MBq
- Alpha dose ([2]; Urinary Bladder Wall): 0.00E000 mSv/MBq
- Beta dose ([2]; Urinary Bladder Wall): 2.84E−01 mSv/MBq
- ED Cont. ([2]; Urinary Bladder Wall): 1.62E−02 mSv/MBq
- Total dose ([2]; Urinary Bladder Wall): 3.24E−01 mSv/MBq
- Alpha dose ([2]; Uterus): 0.00E000 mSv/MBq
- Beta dose ([2]; Uterus): 2.13E−03 mSv/MBq
- ED Cont. ([2]; Uterus): 5.77E−05 mSv/MBq
- Total dose ([2]; Uterus): 1.15E−02 mSv/MBq
- dose to urinary bladder wall (dose limiting organ) [2]: 0.32 mSv/MBq
- whole body effective dose [2]: 2.13E-02 mSv/MBq and 0.021 mSv/MBq
- whole body effective dose ([2]; injected activity 150 MBq): 3.2 mSv
